According to patent US20230329236A1, “HERBICIDAL PYRIMIDINE DERIVATIVES” (MoA Technology Limited, priority 2020, published 2023):

Experiments:
Conditions in all cases: 336 h, Table 3, post-emergence, 14±1 days post application
[1] = test system: Lolium multiflorum (LOLMU); assay: Post-emergence glasshouse test, visual injury, LOLMU; format: in vivo
Description: (§1) Seeds of a variety of test species are grown in a sandy loam soil mixture, Lolium multiflorum (LOLMU), Amaranthus retroflexus (AMARE), Echinochloa crus-gaffi (ECHCG), Veronica persica (VERPE), Glycine max (GLXMA), Oryza sativa (ORYSA), Zea mays (ZEAMX), spring wheat (TRZAS), Ipomoea hederacea (IPOHE), Ipomoea purpurea (PHBPU), Stellaria media (STEME), Solanum nigrum (SOLNI), Digitaria sanguinalis (DIGSA), Setaria italica (SETIT), Alopecurus myosuroides (ALOMY) and Avena fatua (AVEFA).
(§2) After sowing, at growth stage BBCH 12-14 (post-emergence), the plants are sprayed with an aqueous spray solution derived from the formulation of the technical active ingredient in acetone/water (50:50) solution containing 0.5% Tween 20 (polyoxyethlyene sorbitan monolaureate, CAS RN 9005-64-5). The test compounds are applied at the required concentration of active ingredient in g/ha. The test plants are then grown in a glasshouse under controlled environmental conditions and watered regularly as required. After 14±1 days post application (for post-emergence test), the test is evaluated by assessing the percentage damage caused to the plants in comparison with the untreated plots. The biological activities for post-emergence testing are shown below (Table 3 and Table 4) as a % visual injury.

[2] = test system: Echinochloa crus-gaffi (ECHCG); assay: Post-emergence glasshouse test, visual injury, ECHCG; format: in vivo, Echinochloa crus-galli
Description: as §1, §2

Veronica persica (VERPE) = assay: Post-emergence glasshouse test, visual injury, VERPE; format: in vivo
Description: as §1, §2

[3] = test system: Amaranthus retroflexus (AMARE); assay: Post-emergence glasshouse test, visual injury, AMARE; format: in vivo
Description: as §1, §2

Compound | pest or weed control at 125 g/ha [1] [%] | pest or weed control at 125 g/ha [2] [%] | pest or weed control at 125 g/ha (Veronica persica (VERPE)) [%] | pest or weed control at 125 g/ha [3] [%] | pest or weed control at 500 g/ha [1] [%] | pest or weed control at 500 g/ha [2] [%] | pest or weed control at 500 g/ha (Veronica persica (VERPE)) [%] | pest or weed control at 500 g/ha [3] [%] | further results
Cc1cc(-c2cnc(NC3CCCc4sc(Cl)cc43)nc2C(C)C)on1 (stereo not drawn) [Compound 3] | 0 | 60 | 10 | 60 | – | – | – | – | –
Cc1ncc(-c2cnc(NC3CCCC3)nc2C(C)C)s1 [Compound 123] | – | – | – | – | – | – | – | – | pest or weed control at 62 g/ha [1]: 0%; pest or weed control at 62 g/ha [2]: 0%; pest or weed control at 62 g/ha (Veronica persica (VERPE)): 50%; pest or weed control at 62 g/ha [3]: 0%
Cc1cc(-c2cnc(NCc3ccccc3Cl)nc2C(C)C)on1 [Compound 101] | – | – | – | – | – | – | – | – | pest or weed control at 62 g/ha [1]: 0%; pest or weed control at 62 g/ha [2]: 70%; pest or weed control at 62 g/ha (Veronica persica (VERPE)): 40%; pest or weed control at 62 g/ha [3]: 50%
Cc1cc(-c2cnc(N)nc2C(F)(F)F)on1 [Compound 122] | 0 | 0 | 0 | 20 | – | – | – | – | –
COc1ccc(CNc2ncc(-c3onc(C)c3C)c(-c3ccco3)n2)cc1 [Compound 77] | – | – | – | – | 70 | 80 | 70 | 70 | –
COc1cc(CNc2ncc(-c3cc(C)no3)c(C(C)C)n2)cc(OC)c1 [Compound 15] | – | – | – | – | – | – | – | – | pest or weed control at 1000 g/ha ([1]; 1000 g/ha): 0%; pest or weed control at 1000 g/ha ([2]; 1000 g/ha): 30%; pest or weed control at 1000 g/ha (Veronica persica (VERPE); 1000 g/ha): 100%; pest or weed control at 1000 g/ha ([3]; 1000 g/ha): 60%
Cc1cc(-c2cnc(NC3CCC3)nc2C(C)C)on1 [Compound 14] | – | – | – | – | 50 | 100 | 100 | 100 | –
Cc1cc(-c2cnc(NC3CC3)nc2-c2ccc(C)o2)on1 [Compound 44] | – | – | – | – | 30 | 20 | 20 | 70 | –
Cc1cc(-c2cnc(NCc3cccc(F)c3)nc2C2CC2)on1 [Compound 85] | 30 | 80 | 50 | 95 | – | – | – | – | pest or weed control at 250 g/ha ([1]; 250 g/ha): 40%; pest or weed control at 250 g/ha ([2]; 250 g/ha): 100%; pest or weed control at 250 g/ha (Veronica persica (VERPE); 250 g/ha): 100%; pest or weed control at 250 g/ha ([3]; 250 g/ha): 100%
COCCCNc1ncc(-c2cc(C)no2)c(C(C)C)n1 [Compound 32] | – | – | – | – | 0 | 100 | 90 | 90 | –
Cc1cc(-c2cnc(NCC3CCCCC3)nc2C(C)C)on1 [Compound 108] | 0 | 20 | 50 | 50 | – | – | – | – | –
Cc1cc(-c2cnc(NCc3ccccn3)nc2C2CC2)on1 [Compound 67] | – | – | – | – | 20 | 40 | 50 | 60 | –
Cc1cc(-c2cnc(NCc3ccc(Cl)cc3)nc2C(C)C)on1 [Compound 102] | 40 | 80 | 100 | 100 | – | – | – | – | pest or weed control at 62 g/ha [1]: 20%; pest or weed control at 62 g/ha [2]: 80%; pest or weed control at 62 g/ha (Veronica persica (VERPE)): 80%; pest or weed control at 62 g/ha [3]: 98%
CCN(C)c1ncc(-c2cc(C)no2)c(C(C)C)n1 [Compound 1, N-ethyl-N-methyl-5-(3-methyl-1,2-oxazol-5-yl)-4-(propan-2-yl)pyrimidin-2-amine] | 0 | 0 | 0 | 0 | 0 | 50 | 90 | 70 | –
Cc1cc(-c2cnc(NCc3ccc(F)cn3)nc2C(C)C)on1 [Compound 96] | – | – | – | – | – | – | – | – | pest or weed control at 62 g/ha [1]: 0%; pest or weed control at 62 g/ha [2]: 40%; pest or weed control at 62 g/ha (Veronica persica (VERPE)): 50%; pest or weed control at 62 g/ha [3]: 50%
Cc1cc(-c2cnc(NCC3COCCO3)nc2C2CC2)on1 (stereo not drawn) [Compound 74] | – | – | – | – | 70 | 80 | 90 | 100 | –
Cc1cc(-c2cnc(NCCc3c(C)noc3C)nc2C2CC2)on1 [Compound 46] | – | – | – | – | 60 | 70 | 50 | 90 | –
Cc1cc(-c2cnc(NC(C)C)nc2-c2ccc(C)o2)on1 [Compound 51] | – | – | – | – | 0 | 70 | 0 | 0 | –
